Data: the CheMixHub viscosity set

Assay: xn = mol fraction of the nth substance listed

CCCOC(C)=O + COCCOCCOCCOCCOC
viscosity [mPa·s], 101 kPa
Details	298.15 K	308.15 K	318.15 K
x1 = 0.01	3.323	2.605	2.085
x2 = 0.0066	0.564	0.496	0.445
x2 = 0.0294	0.602	0.529	0.471
x2 = 0.0477	0.633	0.554	0.494
x2 = 0.0676	0.67	0.585	0.519
x2 = 0.103	0.746	0.64	0.562
x2 = 0.1448	0.825	0.716	0.619
x2 = 0.1941	0.93	0.794	0.689
x2 = 0.2422	1.049	0.881	0.757
x2 = 0.2932	1.161	0.978	0.834
x2 = 0.3625	1.343	1.12	0.943
x2 = 0.4204	1.504	1.234	1.038
x2 = 0.4781	1.663	1.364	1.139
x2 = 0.5293	1.827	1.472	1.22
x2 = 0.5986	2.014	1.633	1.345
x2 = 0.6621	2.209	1.784	1.458
x2 = 0.7157	2.378	1.924	1.559
x2 = 0.7802	2.61	2.074	1.679
x2 = 0.8069	2.687	2.142	1.737
x2 = 0.8324	2.77	2.203	1.78

ClC(Cl)(Cl)Cl + COc1ccccc1
viscosity [mPa·s], 101 kPa
Details	x2 = 0.105	x2 = 0.2013	x2 = 0.3026	x2 = 0.3956	x2 = 0.5023	x2 = 0.5968	x2 = 0.699	x2 = 0.797	x2 = 0.8998
298.15 K	0.9408	0.9425	0.9493	0.9547	0.9644	0.9745	0.9834	0.9896	0.9961
303.15 K	0.8895	0.8842	0.8852	0.8927	0.9013	0.9054	0.9147	0.919	0.926
308.15 K	0.8268	0.8263	0.8279	0.8326	0.8397	0.8446	0.8502	0.8547	0.858
313.15 K	0.7762	0.7751	0.7851	0.7777	0.7837	0.7864	0.7919	0.7946	0.7981

CCOC(=O)c1ccccc1O + CS(C)=O
303.15 K, 101 kPa
Details	viscosity [mPa·s]
x1 = 0.0499	1.888
x1 = 0.1687	2.196
x1 = 0.2404	2.294
x1 = 0.3226	2.533
x1 = 0.4179	2.57
x1 = 0.5265	2.723
x1 = 0.6564	2.843

ClC(Cl)(Cl)Cl + CS(C)=O
Details	viscosity [mPa·s]
298 K, 101.3 kPa, x1 = 0.1093	2.001
298 K, 101.3 kPa, x1 = 0.226	1.852
298 K, 101.3 kPa, x1 = 0.4246	1.654
298 K, 101.3 kPa, x1 = 0.5746	1.5
298 K, 101.3 kPa, x1 = 0.6402	1.399
298 K, 101.3 kPa, x1 = 0.8661	1.067
303.15 K, 101.33 kPa, x1 = 0.2642	1.553
303.15 K, 101.33 kPa, x1 = 0.3011	1.526
303.15 K, 101.33 kPa, x1 = 0.3924	1.483
303.15 K, 101.33 kPa, x1 = 0.4763	1.391
303.15 K, 101.33 kPa, x1 = 0.5118	1.358
303.15 K, 101.33 kPa, x1 = 0.5664	1.304
318 K, 101.3 kPa, x1 = 0.114	1.312
318 K, 101.3 kPa, x1 = 0.2398	1.25
318 K, 101.3 kPa, x1 = 0.424	1.139
318 K, 101.3 kPa, x1 = 0.5763	1.035
318 K, 101.3 kPa, x1 = 0.8096	0.8725
